Earlier results in patent US12514832B2, “Methods for using low-dose colchicine after myocardial infarction” (INSTITUT DE CARDIOLOGIE DE MONTREAL, priority 2019, dated 2026).

Tests used:
[1] = CIRT; cited from earlier work
[2] = biological target: interleukin-13 (Homo sapiens, UniProt P01584); conditions: CANTOS; cited from earlier work

| Molecule | effect on cardiovascular outcomes or plasma markers of inflammation (in words) [1] | incidence of fatal infections versus placebo (in words) [2] |
| --- | --- | --- |
| CN(Cc1cnc2nc(N)nc(N)c2n1)c1ccc(C(=O)N[C@@H](CCC(=O)O)C(=O)O)cc1 [methotrexate] | did not affect cardiovascular outcomes or plasma markers of inflammation |  |
| canakinumab: injectable monoclonal antibody; anti-inflammatory studied in CANTOS |  | slightly higher incidence of fatal infections |
